Calls of active or inactive are those of the source. The calls are words filed in the database; no cut-off is given here.
Assays:
[1] = Induction of cell cycle arrest in human KBV cells assessed as accumulation of cells at G1-G0 phase at 10 uM incubated for 24 hrs by flow cytometry analysis (reference value: 62.34 +/- 0.24%); format: functional
[2] = Induction of Ptx-mediated cell cycle arrest in human KBV cells assessed as accumulation of cells at Sub-G1 phase at 10 uM incubated for 24 hrs in presence of paclitaxel by flow cytometry analysis (reference value: 1.21 +/- 0.3%); format: functional
[3] = Induction of cell cycle arrest in human KBV cells assessed as accumulation of cells at Sub-G1 phase at 5 uM incubated for 24 hrs by flow cytometry analysis (reference value: 1.24 +/- 0.14%); format: functional
[4] = Induction of Ptx-mediated cell cycle arrest in human KBV cells assessed as accumulation of cells at Sub-G1 phase at 5 uM incubated for 24 hrs in presence of paclitaxel by flow cytometry analysis (reference value: 1.21 +/- 0.3%); format: functional
[5] = biological target: Multidrug resistance-associated protein 1 (Homo sapiens, UniProt P33527); assay: Binding affinity to ABCC1 in human KBV cells assessed as stabilization of ABCC1 at 50 uM incubated for 26 hrs by western blot based cellular thermal shift assay; format: cell-based
[6] = Reversal of multidrug resistance in human KBV Cells assessed as reversal fold of paclitaxel IC50 at 10 uM incubated for 72 hrs in presence of paclitaxel by MTT assay; format: functional
[7] = Induction of cell cycle arrest in human KBV cells assessed as accumulation of cells at G1-G0 phase at 5 uM incubated for 24 hrs by flow cytometry analysis (reference value: 62.34 +/- 0.24%); format: functional
[8] = Induction of Ptx-mediated cell cycle arrest in human KBV cells assessed as accumulation of cells at G2-M phase at 5 uM incubated for 24 hrs in presence of paclitaxel by flow cytometry analysis (Rvb =25.34 +/- 0.92%); format: functional
[9] = biological target: T1, ATP-dependent translocase ABCB1 (Homo sapiens, UniProt P08183); assay: Negative allosteric modulator activity at P-glycoprotein mediated Rhodamine-123 efflux in human KBV cells assessed as increase in intracellular Rhodamine-123 accumulation incubated for 2 hrs by flow cytometry analysis; format: cell-based
[10] = Induction of Ptx-mediated cell cycle arrest in human KBV cells assessed as accumulation of cells at G1-G0 phase at 10 uM incubated for 24 hrs in presence of paclitaxel by flow cytometry analysis (Rvb =57.76 +/- 0.78%); format: functional
[11] = Induction of cell cycle arrest in human KBV cells assessed as accumulation of cells at G2-M phase at 10 uM incubated for 24 hrs by flow cytometry analysis (reference value: 24.94 +/- 0.21%); format: functional
[12] = Toxicity against BALB/c mouse xenografted with Ptx-resistance human KBV cells at 20 mg/kg,ip measured after 23 days; format: organism-based; settings: in vivo, 552 h, time 23 day
[13] = Induction of Ptx-mediated cell cycle arrest in human KBV cells assessed as accumulation of cells at G1-G0 phase at 5 uM incubated for 24 hrs in presence of paclitaxel by flow cytometry analysis (Rvb =57.76 +/- 0.78%); format: functional
[14] = Induction of Ptx-mediated cell cycle arrest in human KBV cells assessed as accumulation of cells at S phase at 5 uM incubated for 24 hrs in presence of paclitaxel by flow cytometry analysis (Rvb =16.63 +/- 0.4%); format: functional
[15] = Induction of cell cycle arrest in human KBV cells assessed as accumulation of cells at G2-M phase at 5 uM incubated for 24 hrs by flow cytometry analysis (reference value: 24.94 +/- 0.21%); format: functional
P-gp (ABCB1) ATPase [16] = biological target: T2, P-gp (ABCB1) ATPase (Homo sapiens, UniProt P08183); assay: Negative allosteric modulator activity at human P-gp ATP synthase hydrolytic activity assessed as inhibition of Vrp-stimulated Pgp-ATPase activity at 25 uM incubated for 60 mins in presence of ATP by Glo-luminescence based microplate reader assay relative to DMSO; settings: probe Vrp (stimulator of the ATPase activity)
[17] = biological target: T1, ATP-dependent translocase ABCB1; assay: Negative allosteric modulator activity at P-glycoprotein mediated Rhodamine-123 efflux in human KBV cells assessed as increase in intracellular Rhodamine-123 accumulation at 10 uM incubated for 2 hrs in presence of Ptx-C by flow cytometry analysis; format: cell-based
KBV = assay: Chemo-sensitizing activity against Ptx-resistance human KBV cells xenografted in BALB/c mouse assessed as inhibition of tumor growth at 20 mg/kg,ip measured after 23 days; format: functional, organism-based; settings: time 23.0 day
[18] = Drug accumulation in human KB cells at 10 uM incubated for 4 hrs by LC-MS/MS analysis; format: ADME, cell-based
[19] = Reversal of multidrug resistance in human KBV Cells assessed as increase in PTX-induced cytotoxicity by measuring cell survival rate at 10 uM incubated for 72 hrs in presence of paclitaxel by MTT assay relative to control; format: functional; settings: read-out: Survival
[20] = Induction of cell cycle arrest in human KBV cells assessed as accumulation of cells at Sub-G1 phase at 10 uM incubated for 24 hrs by flow cytometry analysis (reference value: 1.24 +/- 0.14%); format: functional
[21] = biological target: T1, ATP-dependent translocase ABCB1; assay: Negative allosteric modulator activity at human P-gp ATP synthase hydrolytic activity assessed as inhibition of basal Pgp-ATPase activity at 1 mM incubated for 60 mins in presence of ATP by Glo-luminescence based microplate reader assay; settings: 1 h, 1000 µM
[22] = Reversal of multidrug resistance in human KBV Cells assessed as reversal fold of paclitaxel IC50 at 5 uM incubated for 72 hrs in presence of paclitaxel by MTT assay; format: functional
[23] = Induction of Ptx-mediated cell cycle arrest in human KBV cells assessed as accumulation of cells at G2-M phase at 10 uM incubated for 24 hrs in presence of paclitaxel by flow cytometry analysis (Rvb =25.34 +/- 0.92%); format: functional
P-gp (ABCB1) ATPase [24] = biological target: T2, P-gp (ABCB1) ATPase; assay: Negative allosteric modulator activity at human P-gp ATP synthase hydrolytic activity assessed as inhibition of Vrp-stimulated Pgp-ATPase activity incubated for 60 mins in presence of ATP by Glo-luminescence based microplate reader assay relative to DMSO; settings: probe Vrp (stimulator of the ATPase activity)
[25] = Induction of cell cycle arrest in human KBV cells assessed as accumulation of cells at S phase at 10 uM incubated for 24 hrs by flow cytometry analysis (reference value: 12.42 +/- 0.41%); format: functional
[26] = Induction of cell cycle arrest in human KBV cells assessed as accumulation of cells at S phase at 5 uM incubated for 24 hrs by flow cytometry analysis (reference value: 12.42 +/- 0.41%); format: functional
P-gp (ABCB1) ATPase [27] = biological target: T2, P-gp (ABCB1) ATPase; assay: Negative allosteric modulator activity at human P-gp ATP synthase hydrolytic activity assessed as inhibition of basal Pgp-ATPase activity at 25 uM incubated for 60 mins in presence of ATP by Glo-luminescence based microplate reader assay relative to DMSO
[28] = Reversal of multidrug resistance in human KBV Cells assessed as increase in PTX-induced cytotoxicity by measuring cell survival rate at 5 uM incubated for 72 hrs in presence of paclitaxel by MTT assay relative to control; format: functional; settings: read-out: Survival

T1 sequence (P08183 whole entry): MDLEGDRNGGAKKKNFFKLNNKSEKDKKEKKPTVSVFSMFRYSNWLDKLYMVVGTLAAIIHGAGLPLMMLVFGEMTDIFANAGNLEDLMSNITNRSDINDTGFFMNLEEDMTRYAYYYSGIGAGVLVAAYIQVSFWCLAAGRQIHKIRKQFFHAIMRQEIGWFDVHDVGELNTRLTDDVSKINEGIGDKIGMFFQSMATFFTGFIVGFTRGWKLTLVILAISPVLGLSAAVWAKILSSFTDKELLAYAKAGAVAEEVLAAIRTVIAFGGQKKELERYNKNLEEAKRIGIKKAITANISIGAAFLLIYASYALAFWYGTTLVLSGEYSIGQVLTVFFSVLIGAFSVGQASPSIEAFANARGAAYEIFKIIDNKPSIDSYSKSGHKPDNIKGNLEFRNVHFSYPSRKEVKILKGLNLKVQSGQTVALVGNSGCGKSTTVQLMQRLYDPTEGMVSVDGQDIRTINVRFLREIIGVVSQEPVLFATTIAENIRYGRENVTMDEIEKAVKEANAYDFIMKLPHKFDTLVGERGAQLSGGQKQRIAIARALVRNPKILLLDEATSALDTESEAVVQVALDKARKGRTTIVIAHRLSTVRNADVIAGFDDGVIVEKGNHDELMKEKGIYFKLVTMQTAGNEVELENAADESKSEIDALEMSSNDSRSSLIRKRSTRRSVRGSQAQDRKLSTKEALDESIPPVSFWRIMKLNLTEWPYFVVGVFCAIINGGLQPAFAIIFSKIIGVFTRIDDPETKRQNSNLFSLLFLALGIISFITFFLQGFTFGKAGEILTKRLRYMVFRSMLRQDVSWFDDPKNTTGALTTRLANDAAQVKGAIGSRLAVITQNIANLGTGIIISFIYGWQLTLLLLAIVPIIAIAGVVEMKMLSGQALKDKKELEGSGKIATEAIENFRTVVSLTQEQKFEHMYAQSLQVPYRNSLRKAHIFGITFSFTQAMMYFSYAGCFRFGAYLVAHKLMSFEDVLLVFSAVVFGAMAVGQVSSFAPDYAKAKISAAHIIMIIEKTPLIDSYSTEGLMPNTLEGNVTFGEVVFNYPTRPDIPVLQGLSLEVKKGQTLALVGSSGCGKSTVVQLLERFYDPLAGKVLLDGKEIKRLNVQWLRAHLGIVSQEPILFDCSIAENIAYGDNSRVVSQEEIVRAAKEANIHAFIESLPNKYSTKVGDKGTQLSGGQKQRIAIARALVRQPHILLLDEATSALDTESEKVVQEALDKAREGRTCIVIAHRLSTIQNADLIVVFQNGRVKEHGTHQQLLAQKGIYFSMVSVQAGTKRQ
T2 sequence (P08183 whole entry): as above
Multidrug resistance-associated protein 1, sequence (P33527 whole entry): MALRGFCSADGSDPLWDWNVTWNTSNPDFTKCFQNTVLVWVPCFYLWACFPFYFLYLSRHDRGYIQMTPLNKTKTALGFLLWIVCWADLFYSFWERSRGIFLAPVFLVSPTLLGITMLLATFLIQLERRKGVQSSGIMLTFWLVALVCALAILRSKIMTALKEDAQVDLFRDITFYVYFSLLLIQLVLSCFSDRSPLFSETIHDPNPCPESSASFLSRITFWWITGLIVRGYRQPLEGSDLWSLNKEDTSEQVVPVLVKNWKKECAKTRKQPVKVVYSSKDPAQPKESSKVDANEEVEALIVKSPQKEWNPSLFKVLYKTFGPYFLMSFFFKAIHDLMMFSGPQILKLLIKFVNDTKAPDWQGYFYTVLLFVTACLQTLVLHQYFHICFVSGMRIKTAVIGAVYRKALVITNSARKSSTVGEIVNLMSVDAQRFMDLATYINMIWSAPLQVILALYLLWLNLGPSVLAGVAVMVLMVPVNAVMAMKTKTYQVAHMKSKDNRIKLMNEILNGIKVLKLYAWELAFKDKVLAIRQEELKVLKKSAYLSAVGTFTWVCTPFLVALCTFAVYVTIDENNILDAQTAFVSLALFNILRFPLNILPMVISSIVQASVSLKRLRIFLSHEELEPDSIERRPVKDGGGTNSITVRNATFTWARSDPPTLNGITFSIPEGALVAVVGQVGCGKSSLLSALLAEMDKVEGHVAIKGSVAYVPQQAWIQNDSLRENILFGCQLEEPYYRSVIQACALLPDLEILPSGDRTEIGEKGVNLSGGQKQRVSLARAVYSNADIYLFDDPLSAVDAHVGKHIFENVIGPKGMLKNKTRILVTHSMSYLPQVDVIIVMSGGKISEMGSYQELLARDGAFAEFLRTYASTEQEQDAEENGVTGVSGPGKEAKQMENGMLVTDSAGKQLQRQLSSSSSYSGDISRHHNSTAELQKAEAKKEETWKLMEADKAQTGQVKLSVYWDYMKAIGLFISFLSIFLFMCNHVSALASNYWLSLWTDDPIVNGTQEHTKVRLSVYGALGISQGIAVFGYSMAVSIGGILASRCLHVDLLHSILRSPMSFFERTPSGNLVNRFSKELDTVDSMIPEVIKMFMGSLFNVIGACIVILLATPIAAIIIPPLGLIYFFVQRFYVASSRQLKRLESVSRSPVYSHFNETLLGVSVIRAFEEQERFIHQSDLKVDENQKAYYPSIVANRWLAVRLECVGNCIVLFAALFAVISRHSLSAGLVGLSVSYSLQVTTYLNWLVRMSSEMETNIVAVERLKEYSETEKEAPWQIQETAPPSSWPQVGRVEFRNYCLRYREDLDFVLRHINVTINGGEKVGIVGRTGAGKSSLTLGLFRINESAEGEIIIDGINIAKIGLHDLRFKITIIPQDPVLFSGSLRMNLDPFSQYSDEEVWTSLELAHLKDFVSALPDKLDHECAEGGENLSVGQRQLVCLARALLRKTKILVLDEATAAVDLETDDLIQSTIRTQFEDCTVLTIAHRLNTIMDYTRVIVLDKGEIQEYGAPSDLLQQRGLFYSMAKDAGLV

Compound `CC(C)(O)[C@H]1CC[C@@](C)([C@H]2CC[C@]3(C)[C@@H]2[C@H](O)C[C@@H]2[C@@]4(C)CC[C@H](NC(=O)[C@@H]5CCCN5)C(C)(C)[C@@H]4CC[C@]23C)O1` has an Activity [1] of 60.47%, an Activity [2] of 8.58% and an Activity [3] of 0.58%. For the same compound, the Activity [4] was 11.4%, the Activity [5] was “Not Active” and the “fold change (FC)” value [6] was 67. For the same compound, the Activity [7] was 59.58%, the Activity [8] was 31.28% and the Activity [9] was “Dose-Dependent Effect”. The Activity [10] was 36.65%, the Activity [11] was 25.93% and the Activity [12] was “Non-Toxic”. For the same compound, the Activity [13] was 45.93%, the Activity [14] was 22% and the Activity [15] was 27.12%. For the same compound, the inhibition at 1 h, 25 µM (P-gp (ABCB1) ATPase [16]) was 60%, the Activity [17] was “Not Active” and the Activity (KBV) was “inactive”. The Drug uptake [18] was “Active”, the viability at 10 µM [19] was 30% and the Activity [20] was 1%. The “inhibition (INH)” value [21] was “Not Active”, the “fold change (FC)” value [22] was 21 and the Activity [23] was 42.21%. It also gave an inhibition at 1 h (P-gp (ABCB1) ATPase [24]) of 40%, an Activity [25] of 13.74% and an Activity [26] of 13.38%. For the same compound, the inhibition at 1 h, 25 µM (P-gp (ABCB1) ATPase [27]) was 87% and the viability at 5 µM [28] was 34%.

— ChEMBL document CHEMBL5331114, “Discovery of Pyxinol Amide Derivatives Bearing Amino Acid Residues as Nonsubstrate Allosteric Inhibitors of P-Glycoprotein-Mediated Multidrug Resistance” (J Med Chem, 2023)
